One compound from patent US20030170858A1, “Gyrase inhibitors and uses thereof” (priority 2001, published 2003) can be followed below.

This experiment deals with E. coli gyrase A2B2 (Escherichia coli, UniProt P0AES6). In words: E. coli gyrase A2B2 ATPase assay. The class given is biochemical. The conditions noted are these: 40 nM Gyr A2B2 from E coli, 0.9 mM ATP, 30° C., read-out: Activity against E. coli gyrase (Ki). Here is the method: The ATP hydrolysis activity of DNA gyrase was measured by coupling the production of ADP through pyruvate kinase/lactate dehydrogenase to the oxidation of NADH. This method has been described previously. (Tamura and Gellert, 1990, J. Biol. Chem. 265, 21342-21349).
ATPase assays were carried out at 30° C. in buffered solutions containing 100 mM TRIS pH 7.6, 1.5 mM MgCl2, and 150 mM KCl. The coupling system contained (final concentrations) 2.5 mM phosphoenol pyruvate, 200 μM nicotinamide adenine dinucleotide (NADH), 1 mM DTT, 30 ug/ml pyruvate kinase, and 10 ug/ml lactate dehydrogenase. 40 nM enzyme (374 kDa Gyr A2B2 from E coli) and a DMSO solution of the inhibitor to a final concentration of 4% were added and the reaction mixture allowed to incubate for 10 minutes at 30° C. The reaction was then started by the addition of ATP to a final concentration of 0.9 mM and the rate of NADH disappearance at 340 nm, measured over the course of 10 minutes. Ki values were determined from rate versus. inhibitor concentration profiles.

For the compound `CCOC(=O)c1cc(-c2sc(-c3cccnc3)nc2CN2CCNCC2)n[nH]1` [IA-67], the Ki (as a rule, a dissociation constant, usually derived from enzyme kinetics or from competition with a known ligand) is 500 to 1500 nM.
